# Experimental data published in patent publication US20260191818A1 (University of South Carolina, priority 2022, published 2026).
# Key:
# C26 tumor-bearing mice = C26 tumor-bearing mice given 5FU (cancer and chemotherapy-induced cachexia): body, tumor and tissue weights, food intake; assay type: in vivo, CD2F1 mice
# Procedure: Male (n=20) CD2F1 (CD2F1) hybrid mice were purchased from Charles River Laboratory (Raleigh, NC) at 10 weeks of age. Mice arrived at our facilities and were given AlN76 diet and allowed to acclimate to the new facilities and purified diet for 4 weeks. Mice were kept in ventilated cages (5 per cage), on a 12:12 h light/dark cycle, in a humidity and temperature control room (~22° C.) and given ad libitum access to water and food. Animal handling and experiments were performed to minimize pain and discomfort. […] Control mice were non-tumor-bearing mice given PBS i.p. and propylene glycol p.o. as vehicle controls. Body weights were measured daily. Food weights per cage were measured daily and average food intake was calculated by the difference in food weight between days. […] Hind limb muscles and select organs were excised, weighed, and snap frozen in liquid nitrogen while mice were under sedation (2% Isoflurane, 2 L/min O2). All procedures involving animals were reviewed and approved by the Institutional Animal Care and Usage Committee (IACUC) at the University of South Carolina in accordance with the American Association for Laboratory Animal Science. C26 (colon 26 adenocarcinoma) cells were gifted from Dr. Andrea Bonetto's laboratory and grown in complete DMEM (10% fetal bovine serum, 1% penicillin/streptomycin). Cells were split at 70% confluency and passage 3 was used for cell implantation. On Day 0, CD2F1 mice were given a subcutaneous injection of 1×10^6 C26 cells in the subscapular area as previously described. See, Bonetto, A., et al., The Colon-26 Carcinoma Tumor-bearing Mouse as a Model for the Study of Cancer Cachexia. J Vis Exp, 2016(117). Tumors were palpable at Day 8 in all C26 tumor-bearing mice. […] VWR; CAS #:51-21-8) was solubilized in warmed phosphate buffered saline (PBS) at 3.0 mg/mL, sterile filtered with a 0.2 μm filter and administered at the beginning of the light cycle (0700) via i.p. injection to mice with established tumor (day 11 after C26 implantation). […] Cancer Biol Ther, 2022. 23(1): p. 1-15; and […]., et al., The Acute Effects of 5 Fluorouracil on Skeletal Muscle Resident and Infiltrating Immune Cells in Mice. […] Data were analyzed using Prism 8 statistical software (GraphPad Software, CA, USA). […] The healthy controls are shown as a reference point but were not included in statistical analysis. Additionally, the C26 alone group was not included in analysis, but is shown as a reference point for tumor growth without chemotherapy intervention. Data are presented as the mean±SEM and the level of significance was set up at p<0.05.
# C26 model of cachexia = conditions: Quercetin 35 mg/kg; cited from earlier work
# [1] = tested on: succinate dehydrogenase (SDH) activity; assay: Myofiber metabolic phenotype, succinate dehydrogenase (SDH) staining of TA cryosections; assay type: in vivo, CD2F1 mice; conditions: C26+5FU+Quer vs C26+5FU
# Procedure: To assess skeletal muscle myofiber metabolic phenotype succinate dehydrogenase (SDH) activity was measured. SDH is an enzyme bound to the inner mitochondrial membrane and SDH activity is higher in type 1 fibers. See, Zogby, A. M., et al., Skeletal muscle fiber-type specific succinate dehydrogenase activity in cerebral palsy. Muscle Nerve, 2017. 55(1): p. 122-124. TA tissue cryosections were taken out of the -80° C. and air dried on the laboratory bench and then incubated in an SDH staining solution containing 0.5 mg/ml nitroblue tetrazolium and (Sigma, Cat #: N5514) and 50 mM sodium succinate (Sigma, Cat #: S2378) in PBS for 30 min at 37° C. See, […]., et al., Eccentric contraction-induced myofiber growth in tumor-bearing mice. J Appl Physiol (1985), 2016. 120(1): p. 29-37. Slides were then washed in distilled water 3×1 min before mounting with warmed glycerol mounting media and cover slipped. Images of SDH stains were taken at 4×, 20×, and 40× using a Keyence BZX800 microscope. […] Images were inverted thus higher values corresponded with higher SDH activity.
# [2] = tested on: mitochondrial complexes I-V, VDAC, cytochrome c; assay: Western blot of rectus femoris, mitochondrial content proteins; assay type: in vivo, CD2F1 mice; conditions: C26+5FU+Quer vs C26+5FU; p=0.01
# Procedure: Protein isolation and western blotting was completed similar to what has been previously described. See, Sougiannis, A. T., et al., Impact of weight loss and partial weight regain on immune cell and inflammatory markers in adipose tissue in male mice. J Appl Physiol (1985), 2020. 129(4): p. 909-919. The rectus femoris (RF) was teased from the other quadriceps muscles, cut in half (proximal/distal), snap frozen in liquid nitrogen, and stored at −80° C. The distal RF was homogenized in Mueller Buffer (50 mM Hepes, 0.1% Triton-x, 4 mM EGTA, 10 mM EDTA, 15 mM Na4P207, 100 mM β-glycerophosphate, 25 mM NaF, and 5 mM NaVO4, with protease inhibitor cocktail) using a bead homogenizer at 4° C. Samples were centrifuged and the supernatant was collected and diluted with a diluent buffer (50% Glycerol, 50 mM Na4P2O7, 2.5 mM EGTA, and 1 mM β-mercaptoethanol with protease inhibitor cocktail). Protein concentrations were determined using the Bradford standard protein assay and protein integrity was confirmed with SDS-PAGE and amido black staining. Between 10-50 μg of muscle protein homogenate was separated via SDS-PAGE and transferred to a PVDF membrane. Membranes were stained with Ponceau Red to confirm even loading and transfer efficiency. […] Images were then scanned, and relative protein expression was determined with ImageJ. […]
smiles,measurement,setting,value
"O=c1c(O)c(-c2ccc(O)c(O)c2)oc2cc(O)cc(O)c12 [quercetin, 3,4,5,7-pentahydroxylflavone]",greater EDL weight,"C26 tumor-bearing mice; C26+5FU+Quer vs C26+5FU, p=0.039",23.7%
same,greater gonadal fat pad weight,"C26 tumor-bearing mice; C26+5FU+Quer vs C26+5FU, p=0.04",50.0%
same,greater gastrocnemius weight,"C26 tumor-bearing mice; C26+5FU+Quer vs C26+5FU, p=0.055",13.9%
same,other measured muscle weights,"C26 tumor-bearing mice; C26+5FU+Quer vs C26+5FU, p=0.09-0.15",did not achieve statistically significant differences
same,greater RF (rectus femoris) weight,"C26 tumor-bearing mice; C26+5FU+Quer vs C26+5FU, quercetin 50 mg/kg p.o., p=0.02",14.4%
same,impact on body weight loss,"C26 tumor-bearing mice; mice given 5FU 30 mg/kg lean mass i.p., quercetin 50 mg/kg p.o. vs propylene glycol, daily from Day 11",no apparent impact
same,muscle mass loss,C26 model of cachexia,protected against muscle mass loss
same,"CSA across glycolytic, mixed, and oxidative fibers according to SDH activity",[1],increase
same,mCSA and SDH across the spectrum of fibers analyzed,[1],increased
same,change in expression of cytochrome c,[2],48.9%
